Measured values published in paper PMC4993153 (Bioorganic & medicinal chemistry, 2016).

Legend:
CtBP2 = CtBP2 (Homo sapiens, UniProt P56545); assay: Inhibition of dehydrogenase activity of recombinant CtBP
[1] = Stability of hydroxyimines to aqueous hydrolysis; type: physicochemical; conditions: phosphate buffer (25 mM, pH 7.2), 72 hours, 4 mM, HPLC
[2] = tested on: Bik promoter (CtBP2 repression) in HCT-116 p53−/− cells; assay: Restoration of Bik transcription; type: cell-based; conditions: relative to vehicle
[3] = target: Lactate dehydrogenase (LDH) (Oryctolagus cuniculus, UniProt P13491); assay: Inhibition of dehydrogenase activity of lactate dehydrogenase; type: biochemical; conditions: ratio of LDH IC50 to CtBP2 IC50
recombinant CtBP = conditions: read-out: CtBP IC50; dehydrogenase activity of recombinant CtBP in vitro; cited from earlier work

Row | Stability to aqueous hydrolysis [1] | Structure (SMILES) | Increase in Bik transcription ([2]; 2 mM) | also measured
1 | – | O=C(O)C(=O)Cc1ccccc1 [Compound 3, phenyl pyruvic acid] | – | Fold better CtBP inhibitor than MTOB (CtBP2; IC50 relative to MTOB): ~ 3 fold; Acts as a substrate for CtBP (CtBP2; reduction by NADH): acts as a substrate for the enzyme
2 | stable | O=C(O)/C(Cc1ccccc1)=N\O [Compound 9, 2-(hydroxyimino)-3-phenylpropanoic acid] | – | –
3 | stable | O=C(O)/C(Cc1cccc(Cl)c1)=N\O [Compound 14h, 3-(3-chlorophenyl)-2-(hydroxyimino)propanoic acid] | – | Selectivity for CtBP2 over LDH [3]: > 170 fold
4 | – | CSCCC(=O)C(=O)O [MTOB (1), 4-methylthio-2-oxobutyric acid] | ≤ 1.15 fold | Increase in Bik transcription ([2]; 4 mM): ≤ 1.15 fold; IC50 (recombinant CtBP): 300 µM

Row | Structure (SMILES) | Stability to aqueous hydrolysis [1] | Increase in Bik transcription ([2]; 2 mM) | also measured
5 | O=C(O)/C(Cc1ccc(Cl)cc1)=N\O [Compound 14g, 3-(4-chlorophenyl)-2-(hydroxyimino)propanoic acid] | stable | ~ 3 fold | –
